The text below walks through data of patent publication US7585886B2, “Pyrrolidine derivative or salt thereof” (Astellas Pharma Inc., priority 2005, dated 2009).

For series [1], the target named is T1, CYP2D6 (Homo sapiens, UniProt P10635). Kind of series: Human CYP2D6 inhibition test (fluorescence substrate AMMC). Format: in vitro ADME. The arrangement: purchased BD Gentest 456217. As to the method:
Test 3. Human CYP2D6 Inhibition Test
Inhibitory activity evaluation for CYP2D6 was carried out by measuring it in accordance, roughly, with a reference (“Drug Metabolism and Disposition”, 2001, vol. 29, p. 1196-1200).
Final concentrations of the reagents in the enzyme reaction solution were respectively ser to CYP2D6=[…] (mfd. by BD Gentest, Cat. No.: 456217), reduced type nicotinamide adenine dinucleotide phosphate (NADPH) regeneration system (0.0081 mM nicotinamide adenine dinucleotide phosphate (NADP+), 0.41 mM glucose-6-phosphate, 0.41 mM MgCl2, […] glucose-6-phosphate dehydrogenase), and a fluorescence substrate AMMC=1.5 μM, 100 mM potassium phosphate buffer (pH 7.4). Each compound was made into a 50% acetonitrile solution and added to the enzyme reaction solution (acetonitrile final concentration 2.5%). The enzyme reaction was carried out at 37° C. for 30 minutes, the reaction was stopped using a stopping liquid (0.1 M tris(hydroxymethyl)aminomethane (Tris-base):acetonitrile=20:80), and then fluorescence intensity was measured. The concentration showing 50% inhibition (IC50) was calculated from the thus obtained fluorescence intensity, by defining the enzyme activity at the time of no compound addition as 100%.

In series [2] the target is T2, human CaSR (Homo sapiens, UniProt P41180).
T2 construct: human CaSR open reading frame (ORF) was contained in the pcDNA3.1/Zeo(+) vector; expressed in transfected cells
T2 sequence (P41180 20-1078): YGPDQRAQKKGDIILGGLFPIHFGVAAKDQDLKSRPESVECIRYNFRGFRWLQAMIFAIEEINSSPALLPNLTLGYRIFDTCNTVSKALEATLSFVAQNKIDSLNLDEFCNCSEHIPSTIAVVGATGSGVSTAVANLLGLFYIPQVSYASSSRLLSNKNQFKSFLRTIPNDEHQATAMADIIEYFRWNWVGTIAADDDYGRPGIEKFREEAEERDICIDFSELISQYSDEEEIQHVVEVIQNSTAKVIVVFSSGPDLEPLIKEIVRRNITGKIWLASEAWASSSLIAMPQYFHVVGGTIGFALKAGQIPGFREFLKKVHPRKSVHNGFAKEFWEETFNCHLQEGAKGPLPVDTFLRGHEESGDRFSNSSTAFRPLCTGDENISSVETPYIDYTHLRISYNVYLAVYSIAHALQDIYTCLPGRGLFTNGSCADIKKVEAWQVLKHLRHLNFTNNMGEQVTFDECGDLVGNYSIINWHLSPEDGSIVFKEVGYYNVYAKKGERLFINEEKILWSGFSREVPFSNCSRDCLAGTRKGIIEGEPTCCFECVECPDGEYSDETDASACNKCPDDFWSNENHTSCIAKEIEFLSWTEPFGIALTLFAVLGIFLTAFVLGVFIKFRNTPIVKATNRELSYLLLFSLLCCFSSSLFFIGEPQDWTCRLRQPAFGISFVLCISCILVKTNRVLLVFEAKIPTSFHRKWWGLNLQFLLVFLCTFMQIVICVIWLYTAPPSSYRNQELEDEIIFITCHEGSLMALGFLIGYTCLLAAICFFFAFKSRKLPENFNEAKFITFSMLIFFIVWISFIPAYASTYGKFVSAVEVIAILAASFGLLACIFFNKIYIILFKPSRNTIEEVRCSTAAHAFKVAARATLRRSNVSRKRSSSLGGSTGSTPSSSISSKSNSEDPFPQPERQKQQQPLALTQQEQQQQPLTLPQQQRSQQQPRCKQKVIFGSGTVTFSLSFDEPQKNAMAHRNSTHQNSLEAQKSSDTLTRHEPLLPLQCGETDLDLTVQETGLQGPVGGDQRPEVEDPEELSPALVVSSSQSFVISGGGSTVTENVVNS
Kind of series: Human calcium sensing receptor (CaSR) agonistic activity test (FLIPR, Fluo-3 intracellular Ca2+). Format: cell-based. From the text: Test 1. Human Calcium Sensing Receptor (CaSR) Agonistic Activity Test
• 1) Preparation of Human CaSR Expression Vector
A DNA fragment coding for human CaSR was cloned in the standard method. Illustratively, using 203 to 2387 of NM_000388 as a DNA fragment D4, and 2210 to 3633 as a DNA fragment B2, they were amplified using a human kidney cDNA (mfd. by Invitrogen) as the template and using a DNA polymerase (a registered trade name: Pyrobest, mfd. by Takara Bio), and respectively cloned into a pCR2.1 vector using a pCR2.1-Topo vector (mfd. by Invitrogen). Next, DNA fragments prepared by digesting pCR2.1-D4 with SpeI and XbaI were inserted into the same sites of pcDNA3.1/Zeo(+) vector. Successively, the fragments prepared by digesting pCR2.1-B2 with SacI and XbaI were inserted into the SacI and XbaI sites of previously prepared pcDNA3.1/Zeo(+)-D4 (SpeI-XbaI), thereby obtaining a human CaSR expression vector pcDNA3.1/Zeo(+)-hCaSR in which human CaSR open reading frame (ORF) was contained in the pcDNA3.1/Zeo(+) vector. • 2) Preparation of Human CaSR Expression Cell
The human CaSR expression vector was transferred into HEK 293 cell using a transfection reagent (registered trademark: FuGene 6, mfd. by Roche Diagnostics). After the gene transfer, this was cultured in DMEM (mfd. by Invitrogen) medium containing 40 μg/ml Zeocin (registered trademark) (mfd. by Invitrogen) and 10% fetal bovine serum at 37° C. for 2 weeks in the presence of 5% CO2, thereby obtaining Zeocin-resistant clones. An human CaSR stably expressing HEK 293 clone was obtained from these clones by selection using the responsiveness to extracellular Ca^2+ as the index. • 3) Human CaSR Agonistic Activity Test
The HEK 293 cell stably expressing human CaSR was inoculated into a poly-D-lysine-coated black clear bottom 96 well plate (mfd. by BD Bioscience). Hanks' balanced salt solution (HBSS) (Ca^2+ (−), Mg^2+ (−), mfd. by Invitrogen) containing 20 mM HEPES (2-[4-(2-hydroxyethyl)-1-piperazinyl]ethanesulfonic acid) buffer (pH 7.4), 2.5 mM probenecid (mfd. by Sigma) and 0.1% bovine serum albumin was prepared as a washing buffer. After the inoculation and subsequent overnight culturing, the medium was discarded, the washing buffer supplemented with 1 mM CaCl2 and 10 μM Fluo-3 AM (trade name, mfd by DOJINDO) was added thereto in 100 μl per well portions, and then the incubation was carried out at 37° C. for 1Hour in the presence of 5% CO2. This was washed twice with 200 μl of the washing buffer, replaced by 100 μl of the washing buffer supplemented with 0.5 mM CaCl2 and allowed to stand still for 10 minutes, and then the responsiveness to each compound to be evaluated was detected using a plate reader for fluorometry image analysis use (registered trademark: FLIPR, mfd. by Molecular Devices). In this connection, the compound to be evaluated was used by optionally diluting with the washing buffer supplemented with 0.5 mM Ca^2+.
The human CaSR agonistic activity strength of each compound to be evaluated was calculated by defining the solvent group as 0% and the 2 mM Ca^2+ in final concentration group as 100%, and the compound concentration showing 50% activity (EC50) was calculated from a concentration-activity curve by the method of least squares.

Series [3] can be described thus: Measurement of rat plasma calcium concentration after single oral administration. The settings on record: normal male rats, 3 mg/kg oral administration. The class given is in vivo. As to the method: Test 2. Measurement of Rat Plasma Calcium Concentration and Plasma PTH Concentration
The compounds of the invention were administered to rats, and their influences upon the plasma calcium concentration and plasma PTH concentration were examined. The test was carried out by single oral administration of the compounds 5 or 6 normal male rats.
As a vehicle group, an MC solution prepared by adding 0.5% methyl cellulose (MC) solution or ethanol to a final concentration of 5% was administered at a dose of 5 ml/kg. As the comparative control, cinacalcet was dissolved in the MC solution and administered at a dose of 3 mg/kg. Each of the compounds, of the invention was dissolved or suspended the MC solution, or dissolved in ethanol and then diluted with the MC solution as occasion demands, and administered at a dose of 1, 3 or 10 mg/kg.
Blood samples were collected from the orbital venous plexus under ether anesthesia before the administration and 2Hours, 4Hours, or 8Hours in some cases, after the administration, and the plasma calcium concentration was measured using Calcium E-Test Wako (mfd. by Wako Pure Chemical Industries), and the plasma PTH concentration using Rat Intact PTH ELISA Kit (mfd. by Immutopics) or Rat Bioactive Intact PTH ELISA Kit (mfd. by Immutopics).

The target of series [4] is T1, CYP2D6. The note with it: reported, Non-patent Reference 4; cited from earlier work.
Where [5] appears, read: HEK 293 cell stably expressing human CaSR, 0.5 mM Ca2+ buffer, solvent group 0%, 2 mM Ca2+ group 100%, read-out: EC50 (compound concentration showing 50% activity), human CaSR agonistic activity.
[6] abbreviates: recombinant CYP2D6, AMMC 1.5 μM, 37° C. 30 minutes, read-out: IC50 (concentration showing 50% inhibition), CYP2D6.

Where a name gives a salt, the structure may show the parent alone. Read-outs that look alike come from different tables or passages of the source.

T1 sequence (P10635 whole entry): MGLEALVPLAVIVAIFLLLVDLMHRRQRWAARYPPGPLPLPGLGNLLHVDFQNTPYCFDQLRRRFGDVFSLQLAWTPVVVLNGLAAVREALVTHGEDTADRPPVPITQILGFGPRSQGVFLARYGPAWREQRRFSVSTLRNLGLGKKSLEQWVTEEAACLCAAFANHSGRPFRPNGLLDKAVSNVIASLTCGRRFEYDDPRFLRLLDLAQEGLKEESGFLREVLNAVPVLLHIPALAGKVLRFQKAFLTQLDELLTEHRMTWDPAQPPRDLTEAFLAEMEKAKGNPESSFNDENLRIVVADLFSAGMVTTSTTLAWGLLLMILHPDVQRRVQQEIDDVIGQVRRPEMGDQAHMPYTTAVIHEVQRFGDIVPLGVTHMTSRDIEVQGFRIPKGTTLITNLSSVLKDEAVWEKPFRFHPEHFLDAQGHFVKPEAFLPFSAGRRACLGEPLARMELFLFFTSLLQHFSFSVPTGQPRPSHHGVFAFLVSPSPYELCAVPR

Consider `C[C@@H](NC[C@H]1CN(c2c(F)cc(C(=O)O)cc2F)C[C@@H]1c1ccccc1)c1cccc2ccccc12` [Example 31, 3,5-difluoro-4-[(3S,4S)-3-({[(1R)-1-(1-naphthyl)ethyl]amino}methyl)-4-phenylpyrrolidin-1-yl]benzoic acid hydrochloride], for which the IC50 at 30 min in series [1] (human, recombinant CYP2D6 (BD Gentest, Cat. No. 456217), pH 7.4, probe AMMC 1.5 μM, recombinant CYP2D6, AMMC 1.5 μM, 37° C. 30 minutes, read-out: IC50 (concentration showing 50% inhibition), CYP2D6) is no less than 6 µM. Also, in series [2] (setting [5]), the EC50 was 3.6 nM.

Take `C[C@@H](NC[C@H]1CN(C(=O)Oc2ccc(C(=O)O)cc2)C[C@@H]1c1ccccc1)c1cccc2ccccc12.Cl` [Example 33, 4-({[(3S,4S)-3-({[(1R)-1-(1-naphthyl)ethyl]amino}methyl)-4-phenylpyrrolidin-1-yl]carbonyl}oxy)benzoic acid hydrochloride]: in series [3], the “Rat plasma calcium concentration reducing ratio (%) 4 hours after administration” value is listed as 21%. The EC50 in series [2] amounted to 2.3 nM.

On to `C[C@@H](NC[C@H]1CN(C(=O)Nc2ccc(C(=O)O)cc2)C[C@@H]1c1ccccc1)c1cccc2ccccc12` [Example 41, 4-({[(3S,4S)-3-({[(1R)-1-(1-naphthyl)ethyl]amino}methyl)-4-phenylpyrrolidin-1-yl]carbonyl}amino)benzoic acid hydrochloride], for which the IC50 in series [1] (setting [6]) is no less than 6 µM. The EC50 in series [2] (setting [5]) worked out at 4.9 nM.

Consider `COc1cc(C(=O)O)ccc1NC(=O)N1C[C@H](CN[C@H](C)c2cccc3ccccc23)[C@@H](c2ccccc2)C1` [Example 45, 3-methoxy-4-({[(3S,4S)-3-({[(1R)-1-(1-naphthyl)ethyl]amino}methyl)-4-phenylpyrrolidin-1-yl]carbonyl}amino)benzoic acid hydrochloride], for which the IC50 in series [1] (setting [6]) is no less than 6 µM. The EC50 in series [2] (setting [5]) stood at 3.1 nM.

In the case of `C[C@@H](NC[C@H]1CN(C(=O)CCCCC(=O)O)C[C@@H]1c1cccc(C(F)(F)F)c1)c1cccc2ccccc12` [Example 48, 6-{(3S,4S)-3-({[(1R)-1-(1-naphthyl)ethyl]amino}methyl)-4-[3-(trifluoromethyl)phenyl]pyrrolidin-1-yl}-6-oxohexanoic acid hydrochloride], the EC50 in series [2] (setting [5]) came to 4 nM.

In the case of `C[C@@H](NC[C@H]1CN(C(=O)c2ccc(-c3ccsc3C(=O)O)o2)C[C@@H]1c1ccccc1)c1cccc2ccccc12` [Example 98], the IC50 in series [1] (setting [6]) is no less than 6 µM. The EC50 in series [2] (setting [5]) came out at 5.2 nM.

Regarding `C[C@@H](NC[C@H]1CN(C(=O)CC(C)(C)CC(=O)O)C[C@@H]1c1ccccc1)c1cccc2ccccc12` [Example 109], in series [1] (setting [6]), the IC50 was no less than 6 µM. Besides, the “Rat plasma calcium concentration reducing ratio (%) 4 hours after administration” value in series [3] came out at 17%. The EC50 in series [2] (setting [5]) is 28 nM.

With `C[C@@H](NC[C@H]1CN(c2ccc(-c3nnn[nH]3)cc2)C[C@@H]1c1ccccc1)c1cccc2ccccc12` [Example 130], in series [2] (setting [5]), the EC50 was found to be 15 nM.

Regarding `Cc1cccc([C@H]2CN(c3c(F)cc(C(=O)O)cc3F)C[C@@H]2CN[C@H](C)c2cccc3ccccc23)c1` [Example 171], the “Rat plasma calcium concentration reducing ratio (%) 4 hours after administration” value in series [3] came to 20%. Besides, the EC50 in series [2] (setting [5]) is 16 nM.

For `C[C@@H](NC[C@H]1CN(C(=O)Oc2ccc(C(=O)O)cc2)C[C@@H]1c1cccc(F)c1)c1cccc2ccccc12` [Example 174], the EC50 in series [2] was determined as 3.4 nM.

In series [1], `C[C@@H](NC[C@H]1CN(C(=O)Oc2ccc(C(=O)O)cc2)C[C@@H]1c1cccc(F)c1F)c1cccc2ccccc12` [Example 179] came in with an IC50 of no less than 6 µM. The EC50 in series [2] stood at 0.77 nM.

In the case of `COc1cc(C(=O)O)ccc1NC(=O)N1C[C@H](CN[C@H](C)c2cccc3ccccc23)[C@@H](c2cccc(C)c2)C1` [Example 183], the IC50 in series [1] (setting [6]) is no less than 6 µM. The “Rat plasma calcium concentration reducing ratio (%) 4 hours after administration” value in series [3] stood at 20%. Moreover, the EC50 in series [2] (setting [5]) was determined as 3.5 nM.

Turning to `C[C@@H](NCCCc1cccc(C(F)(F)F)c1)c1cccc2ccccc12` [cinacalcet], the “activity to inhibit CYP2D6 (in words)” value in series [4] was “strong activity to inhibit CYP2D6”.

Take `CC(NC[C@H]1CN(C(=O)Oc2ccc(C(=O)O)cc2)C[C@@H]1c1ccccc1)c1csc2ccccc12` (stereo partly shown) [compound 53]: the EC50 in series [2] (setting [5]) amounted to 5.2 nM.
